We go through 30 compounds from patent US9452170B2, “Compounds and methods for inducing chondrogenesis” (The California Institute for Biomedical Research, priority 2013, dated 2016).

One series has as its system Human MSCs. The series can be described thus: Human chondrocyte differentiation assay (immunostaining for type II collagen, Sox9 and COMP). The series is classed as cell-based. The conditions noted are these: 168 h, compound 1 μM, 7 days, vs DMSO vehicle, read-out: Biological Activity (increase in staining intensity compared to vehicle control). The method, then: Human MSCs (50,000) were plated into each well of a 96-well plate and cultured overnight. Compounds (in DMSO solution) were added to the cells at a final concentration of 1 μM, and the cells were cultured for 7 days at 5% CO2, 37° C. The cells were fixed with 10% formalin solution at room temperature for 10 min, and immunostained using antibodies specific for type II collagen (Abcam), Sox9 (Santa Cruz) and cartilage oligomeric matrix protein (COMP, Santa Cruz), and fluorescently labeled secondary antibodies (Li-Cor). The total intensity of the staining was measured using Oddyssey CLx imaging system (Li-Cor). Vehicle (DMSO) was used as control to determine the basal level of chondrocyte differentiation. […] Representative data are shown in Table 1 [A: >50% increase in staining intensity compared to vehicle control; B: 30-50% increase in staining intensity compared to vehicle control].

A short description of series [1]: Quantitation of compounds in rat knee joint extract after intra-articular injection (LC-MS/MS). The conditions noted are these: knee joint extract (whole joint, acetonitrile extract), other: intra-articular injection, 30 μL of 100 μM solution, 30 μL of 100 μM intra-articular, read-out: Concentration observed in extract; for concentration at 0 h: T = 0 h; for concentration at 0.5 h: T = 0.5 h; for concentration at 1 h: T = 1 h; for concentration at 2 h: T = 2 h. It counts as in vivo. As to the method:
LC-MS/MS analysis for Chondrogenesis compounds were performed using an API 3000 equipped with an Agilent 1100 HPLC and a Leap Technologies autosampler. A HPLC Phenomenex 5 micron, 100 A Luna C18 (2) analytical column with dimensions of 2.0×50 mm (Part No. 00B-4252-B0) at a temperature of 30 C, flow rate of 0.6 mL/min, injection volume of 10 uL, and a 6.0 min run time was used. Mobile phase A1 was 0.1% formic acid in water and Mobile phase B1 was 0.1% formic acid in acetonitrile. The gradient was 90% A1/10% B1 at time 0; 90% A1/10% B1 at time 1.0 min; 10% A1/90% B1 at time 2.0 min; 10% A1/90% B1 at time 4.0 min; 90% A1/10% B1 at time 4.10 min; 90% A1/10% B1 at time 6.0 min. Analytes and internal standard quantitation were performed using Multiple Reaction Monitoring (MRM) quantitation method. Listed below are specific methods used to dose and measure exposure in plasma and the observed concentration in joint extract.
Calibration standard curve was prepared by serial dilution of a concentrated, spike solution of the compound in internal standard diluents. Internal standard diluent was prepared by dissolving the internal standard compound at a certain concentration in acetonitrile. Rat knee joint samples for each time points were individually crushed and transferred into each centrifuge tube and added 1.0-mL of internal standard diluent. Each centrifuge tube was vortexed and centrifuged for 30 minutes. From each tube, supernatant was removed and injected onto the column for analysis. In addition, plasma samples were obtained by retro-orbital bleeds into heparin coated tubes and stored at −80 C and later processed by analogy to the protocol described above for rat plasma samples.
30 μL of 100 μM compound solution (PBS with 0.1% DMSO) was injected into the intra-articular space of the right hinder knee of each animal. The animals were euthanized at indicated time points (0 hr, 0.5 hr, 1 hr, 2 hr, 4 hr and 6 hr). Four animals were used for each timepoint. The injected knee joints were harvested, flash freeze in liquid nitrogen. The whole joints were grounded into powder while frozen, mixed with 1 mL internal standard-containing acetonitrile, incubated at 4° C. overnight, vortexed and centrifuged for 30 min. The supernatant from each sample was analyzed using LC-MS/MS. Data shown in Table 2 indicates the observed concentration in knee extract. ND=Not determined.

Consider `COCCc1ccc(NC(=O)c2ccccc2C(=O)O)cc1` [Compound 21], for which, in the series with Human MSCs, the activation at 1 µM was above 50%. Also, in series [1], the concentration at 0 h was determined as 434 ng/mL, the concentration at 0.5 h turned out to be 9.1 ng/mL, the concentration at 1 h was 4.9 ng/mL and the concentration at 2 h was found to be 0 ng/mL.

`CNS(=O)(=O)c1ccc(N2Cc3ccccc3C2=O)cc1` [Compound 27]: the activation at 1 µM with Human MSCs is above 50%. In addition, in series [1], the concentration at 0 h was 592 ng/mL, the concentration at 0.5 h is 35.4 ng/mL, the concentration at 1 h worked out at 6.3 ng/mL and the concentration at 2 h is 2.5 ng/mL.

For the compound `N#Cc1ccc(C(=O)Nc2ccccc2S(=O)(=O)N2CCOCC2)cc1` [Compound 62], the activation at 1 µM with Human MSCs is above 50%. In addition, in series [1], the concentration at 0 h amounted to 411 ng/mL, the concentration at 0.5 h came to 109 ng/mL, the concentration at 1 h was 52.6 ng/mL and the concentration at 2 h turned out to be 15.7 ng/mL.

As to `CN(Cc1cccc(NC(=O)c2ccccc2C(=O)O)c1)S(C)(=O)=O` [Compound 73], the activation at 1 µM in the series on Human MSCs was above 50%. For the same compound, in series [1], the concentration at 0 h amounted to 587 ng/mL, the concentration at 0.5 h came out at 28.5 ng/mL, the concentration at 1 h was determined as 9.41 ng/mL and the concentration at 2 h came out at 2.6 ng/mL.

In the case of `CS(=O)(=O)c1ccc(C(=O)Nc2ccccc2S(=O)(=O)N2CCOCC2)cc1` [Compound 113], in the series with Human MSCs, the activation at 1 µM is above 50%. Further, in series [1], the concentration at 0 h came to 566 ng/mL, the concentration at 0.5 h was found to be 25.3 ng/mL, the concentration at 1 h is 4.2 ng/mL and the concentration at 2 h is 0 ng/mL.

For the compound `COCCc1ccc(NC(=O)c2ccccc2NS(C)(=O)=O)cc1` [Compound 117], the activation at 1 µM in the series on Human MSCs is above 50%. For the same compound, in series [1], the concentration at 0 h worked out at 926 ng/mL, the concentration at 0.5 h was 50.6 ng/mL, the concentration at 1 h was 4.4 ng/mL and the concentration at 2 h worked out at 0 ng/mL.

Take `O=C(Nc1ccccc1S(=O)(=O)N1CCOCC1)c1ccc(F)cc1` [Compound 123]: the activation at 1 µM in the series on Human MSCs is above 50%. In addition, in series [1], the concentration at 0 h worked out at 4430 ng/mL, the concentration at 0.5 h is 1100 ng/mL, the concentration at 1 h is 741 ng/mL and the concentration at 2 h amounted to 338 ng/mL. The concentration at 4 h in series [1] (T = 4 h) turned out to be 38 ng/mL. The concentration at 6 h in series [1] (T = 6 h) turned out to be 0 ng/mL.

Regarding `CC1COCCN1S(=O)(=O)c1ccccc1NC(=O)c1ccc(F)cc1` (centres unmarked) [Compound 128], in the series on Human MSCs, the activation at 1 µM is above 50%. Besides, in series [1], the concentration at 0 h is 7280 ng/mL, the concentration at 0.5 h was 2940 ng/mL, the concentration at 1 h came out at 1360 ng/mL and the concentration at 2 h is 546 ng/mL.

With `COCCc1ccc(NC(=O)c2ccccc2NS(=O)(=O)c2ccccc2)cc1` [Compound 156], the activation at 1 µM with Human MSCs is above 50%. Also, in series [1], the concentration at 0 h came out at 109 ng/mL, the concentration at 0.5 h is 3.5 ng/mL, the concentration at 1 h came out at 0 ng/mL and the concentration at 2 h is 0 ng/mL.

In the case of `O=C(O)c1ccc(F)cc1C(=O)Nc1ccc(CCCO)cc1` [Compound 183], the activation at 1 µM with Human MSCs lay in the range of 30 to 50%.

As for `O=C(O)c1cc(Cl)ccc1C(=O)Nc1ccc(CCCO)cc1` [Compound 184], in the series with Human MSCs, the activation at 1 µM was 30 to 50%.

With `O=C(Nc1ccc(CCCO)cc1)c1cccc(Cl)c1C(=O)O` [Compound 185], the activation at 1 µM in the series on Human MSCs was 30 to 50%.

Take `O=C(O)c1cccc(Cl)c1C(=O)Nc1ccc(CCCO)cc1` [Compound 186]: in the series on Human MSCs, the activation at 1 µM lay in the range of 30 to 50%.

In the case of `O=C(O)c1ccc(Cl)cc1C(=O)Nc1ccc(CCCO)cc1` [Compound 187], the activation at 1 µM in the series on Human MSCs is 30 to 50%.

On to `Cc1cccc(C(=O)Nc2ccc(CCCO)cc2)c1C(=O)O` [Compound 189], for which the activation at 1 µM with Human MSCs was above 50%.

Take `Cc1cccc(C(=O)O)c1C(=O)Nc1ccc(CCCO)cc1` [Compound 190]: the activation at 1 µM in the series on Human MSCs was above 50%.

For `COC(=O)c1ccccc1NC(=O)Nc1cccc(C(C)=O)c1` [Compound 193], the activation at 1 µM in the series with Human MSCs was 30 to 50%.

As to `COC(=O)c1ccccc1NC(=O)Nc1ccccc1C(F)(F)F` [Compound 194], the activation at 1 µM in the series with Human MSCs lay in the range of 30 to 50%.

Regarding `COC(=O)c1ccccc1NC(=O)Nc1cccc(C(F)(F)F)c1` [Compound 195], the activation at 1 µM with Human MSCs is 30 to 50%.

As to `O=C(Nc1cccc(C(F)(F)F)c1)Nc1ccccc1C(=O)O` [Compound 196], in the series with Human MSCs, the activation at 1 µM lay in the range of 30 to 50%.

Take `COC(=O)c1ccccc1NC(=O)Nc1ccccc1C` [Compound 197]: the activation at 1 µM in the series with Human MSCs lay within 30 to 50%.

Turning to `COC(=O)c1ccccc1NC(=O)Nc1ccc(C)cc1` [Compound 198], the activation at 1 µM in the series on Human MSCs was 30 to 50%.

Take `Cc1ccccc1NC(=O)Nc1ccccc1C(=O)O` [Compound 199]: the activation at 1 µM in the series with Human MSCs is 30 to 50%.

In the case of `COC(=O)c1ccccc1NC(=O)Nc1ccccc1` [Compound 200], in the series with Human MSCs, the activation at 1 µM fell in the range of 30 to 50%.

Turning to `COC(=O)c1ccccc1NC(=O)Nc1ccc2ccccc2c1` [Compound 201], the activation at 1 µM in the series with Human MSCs was in the range of 30 to 50%.

For `COC(=O)c1ccccc1NC(=O)Nc1cccc(C#N)c1` [Compound 202], the activation at 1 µM with Human MSCs is above 50%.

Turning to `O=C(Nc1ccccc1)Nc1ccccc1C(=O)O` [Compound 203], the activation at 1 µM in the series on Human MSCs was 30 to 50%.

For the compound `CC(=O)c1cccc(NC(=O)Nc2ccccc2C(=O)O)c1` [Compound 204], the activation at 1 µM with Human MSCs was in the range of 30 to 50%.

Regarding `CC(=O)c1ccccc1NC(=O)Nc1ccccc1C(=O)O` [Compound 205], in the series with Human MSCs, the activation at 1 µM fell in the range of 30 to 50%.

On to `COC(=O)c1ccccc1NC(=O)Nc1ccc(C(C)=O)cc1` [Compound 206], for which, in the series with Human MSCs, the activation at 1 µM lay in the range of 30 to 50%.
